Assay results published in ChEMBL document CHEMBL1201862, “PubChem BioAssay data set” (2004).
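Briefly, cells in 96-well plates were exposed to five compound concentrations for 48 h, and endpoints were estimated by linear interpolation. Abbreviation: GI50, concentration required for 50% inhibition of growth.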 Active and inactive are the calls of the source. Cut-off read from the data, not from the text of the source: active = GI50 up to about 1.1 µM and inactive = higher.

Legend:
Test in all cases: NCI-60 cell line screen, 48 h
SN12C = tested on: SN12C
OVCAR-8 = tested on: OVCAR-8
HCT-116 = tested on: HCT-116
NCI-H522 = tested on: NCI-H522
K562 = tested on: K562
M19-MEL = tested on: M19-MEL
KM12 = tested on: KM12
HOP-62 = tested on: HOP-62
DLD-1 = tested on: DLD-1
SNB-19 = tested on: SNB-19
Malme-3M = tested on: Malme-3M
EKVX = tested on: EKVX
SW-620 = tested on: SW-620
HOP-92 = tested on: HOP-92
SK-MEL-28 = tested on: SK-MEL-28
CCRF-CEM = tested on: CCRF-CEM
MOLT-4 = tested on: MOLT-4
A498 = tested on: A498
UACC-257 = tested on: UACC-257
SNB-75 = tested on: SNB-75

Measured: GI50

COc1ccc(C[C@H](N)C(=O)N2C[C@H](CO)C[C@H](n3cnc4c(N(C)C)ncnc43)C2)cc1
inactive: SN12C > 100 µM | OVCAR-8 > 100 µM | HCT-116 > 100 µM | NCI-H522 > 100 µM | K562 > 100 µM | M19-MEL > 100 µM | KM12 > 100 µM | HOP-62 > 100 µM | DLD-1 > 100 µM | SNB-19 > 100 µM | Malme-3M > 100 µM | EKVX > 100 µM | SW-620 > 100 µM | HOP-92 57 µM | SK-MEL-28 > 100 µM | CCRF-CEM > 100 µM | MOLT-4 > 100 µM

O=c1[nH]c(=O)n(C2CC(O)C(CO)O2)cc1C#Cc1cc(C(F)(F)F)cc(C(F)(F)F)c1 (stereo unspecified)
inactive: SN12C > 27.9 µM | A498 > 100 µM | HCT-116 > 22.8 µM | NCI-H522 25.1 µM | K562 > 100 µM | M19-MEL > 31.3 µM | KM12 > 30.8 µM | HOP-62 > 68.1 µM | DLD-1 > 29.4 µM | UACC-257 > 37.5 µM | SNB-19 20.1 µM | Malme-3M 34.8 µM | EKVX 40.3 µM | SW-620 > 30.2 µM | HOP-92 33.8 µM | SK-MEL-28 > 31.7 µM | SNB-75 21.1 µM | CCRF-CEM > 100 µM | MOLT-4 > 26.9 µM

CC(=O)N1N=C(c2ccc3ccccc3c2O)CC1c1cccs1 (stereo unspecified)
inactive: SN12C 12.1 µM | OVCAR-8 16.9 µM | A498 12.7 µM | HCT-116 9.89 µM | NCI-H522 14.9 µM | K562 4.18 µM | KM12 14.4 µM | HOP-62 16.3 µM | UACC-257 34.8 µM | Malme-3M 10.4 µM | SW-620 16 µM | HOP-92 33.7 µM | SK-MEL-28 37.2 µM | SNB-75 25.5 µM | CCRF-CEM 4.04 µM | MOLT-4 4.26 µM

COC1C(=[N+]=[N-])C(=O)NC(=O)N1C1OC(COC(c2ccccc2)(c2ccccc2)c2ccccc2)C(O)C1O (stereo unspecified)
inactive: SN12C 16.3 µM | OVCAR-8 19.2 µM | A498 20.1 µM | HCT-116 18.2 µM | NCI-H522 16.2 µM | K562 19.7 µM | M19-MEL 19.4 µM | KM12 16.9 µM | HOP-62 22.7 µM | DLD-1 17.3 µM | UACC-257 > 10 µM | SNB-19 19.7 µM | Malme-3M 16.1 µM | EKVX 19 µM | SW-620 18.5 µM | SK-MEL-28 16.4 µM | SNB-75 15 µM | CCRF-CEM 16.5 µM | MOLT-4 18.2 µM

NC12CCC(CC1=O)C2 (stereo unspecified)
inactive: SN12C > 100 µM | OVCAR-8 > 100 µM | HCT-116 > 100 µM | K562 > 100 µM | KM12 > 100 µM | HOP-62 > 100 µM | UACC-257 > 100 µM | Malme-3M > 100 µM | EKVX > 100 µM | SW-620 > 100 µM | HOP-92 > 100 µM | SK-MEL-28 > 100 µM | SNB-75 > 100 µM | CCRF-CEM > 100 µM | MOLT-4 > 100 µM

O=C1CSC(C(/N=N/c2ccc(Cl)cc2)c2nc3ccccc3[nH]2)=N1 (stereo unspecified)
inactive: SN12C > 100 µM | OVCAR-8 82.8 µM | A498 > 100 µM | HCT-116 > 100 µM | NCI-H522 25.9 µM | K562 61.8 µM | M19-MEL 85.7 µM | KM12 45.8 µM | HOP-62 35.2 µM | DLD-1 65.5 µM | UACC-257 > 100 µM | SNB-19 50.6 µM | Malme-3M > 100 µM | EKVX 91.2 µM | SW-620 > 100 µM | HOP-92 54 µM | SK-MEL-28 35.5 µM | SNB-75 25.6 µM | CCRF-CEM 10.7 µM | MOLT-4 6.79 µM

O=NN1C(c2ccccc2)CNC(=O)CC1c1ccccc1 (stereo unspecified)
inactive: SN12C 53 µM | OVCAR-8 65.5 µM | A498 35.6 µM | HCT-116 38.5 µM | NCI-H522 20.3 µM | K562 22.6 µM | M19-MEL 50.1 µM | KM12 42.9 µM | HOP-62 37.6 µM | DLD-1 44.2 µM | UACC-257 36.4 µM | SNB-19 48.5 µM | Malme-3M 50.9 µM | EKVX 35.4 µM | SW-620 38.1 µM | HOP-92 42.8 µM | SK-MEL-28 57.3 µM | SNB-75 20.8 µM | CCRF-CEM 35.3 µM | MOLT-4 52.7 µM

O=C1CCCCN1
inactive: SN12C > 267 µM | OVCAR-8 > 1120 µM | A498 > 52 µM | HCT-116 > 1120 µM | NCI-H522 > 1120 µM | K562 > 1120 µM | M19-MEL > 403 µM | KM12 > 1120 µM | HOP-62 > 1120 µM | DLD-1 879 µM | UACC-257 > 1120 µM | SNB-19 > 1120 µM | Malme-3M > 1120 µM | EKVX > 258 µM | SW-620 > 1120 µM | HOP-92 > 1120 µM | SK-MEL-28 > 1120 µM | SNB-75 > 1120 µM | CCRF-CEM > 1120 µM | MOLT-4 706 µM
